Test results reported in ChEMBL document CHEMBL5137024, “Discovery of novel coumarin-indole derivatives as tubulin polymerization inhibitors with potent anti-gastric cancer activities” (Eur J Med Chem, 2022).
Active and inactive are the calls of the source. The rule behind the calls is not given here.

Assays:
[1] = molecular target: Tubulin (Sus scrofa) (UniProt P02554+P02550); experiment: Inhibition of porcine brain tubulin polymerization assessed as reduction in tubulin polymerization level by measuring relative fluorescence intensity at 3 umol/l by fluorescence based assay; format: tissue-based; conditions: dose 3.0 µmol/L
[2] = Induction of mitochondria mediated intrinsic apoptosis in human MGC-803 cells assessed as late apoptotic cells at 15 nM measured after 48 hrs by flow cytometry analysis (Rvb= 98.2%); format: functional
[3] = Induction of mitochondria mediated intrinsic apoptosis in human HGC-27 cells assessed as early apoptotic cells at 20 nM measured after 48 hrs by flow cytometry analysis (Rvb= 6.4%); format: functional
[4] = system: MGC-803; experiment: Inhibition of cell migration in human MGC-803 cells assessed as reduction in wound healing rate at 5 to 15 nM incubated for 24 hrs; format: functional, cell-based; conditions: dose 5-15 nM
[5] = system: MGC-803; experiment: Induction of apoptosis in human MGC-803 cells assessed as upregulation of DR5 level; format: functional, cell-based; conditions: dose 5-15 nM, DDE = dose-dependent effect
[6] = Toxicity in BALB/c nude mouse xenografted with human MGC-803 cells assessed as pathological changes in kidney at 15 to 30 mg/kg, ip administered once daily for 21 days by Hematoxyin-eosin staining based analysis; format: organism-based; conditions: in vivo, 504 h, dose 15-30 mg/kg, time 21 day
[7] = system: MDA-MB-231; experiment: Antiproliferative activity against human MDA-MB-231 cells assessed as reduction in cell viability incubated for 48 hrs by MTT assay; format: functional, cell-based; conditions: MDA-MB-231, 48 h
[8] = system: MGC-803; experiment: Inhibition of p38 signalling pathway in human MGC-803 cells assessed as reduction in downstream substrate MAPKAPK2 phosphorylation at 5 to 15 nM incubated for 48 hrs; format: cell-based; conditions: dose 5-15 nM
[9] = system: HGC-27; experiment: Downregulation of phosphorylated Elk-1 expression in human HGC-27 cells incubated for 48 hrs; format: functional, cell-based; conditions: dose 10-30 nM, DDE = dose-dependent effect
[10] = system: EC9706; experiment: Antiproliferative activity against human EC9706 cells assessed as reduction in cell viability incubated for 48 hrs by MTT assay; format: functional, cell-based; conditions: EC9706, 48 h
[11] = system: MGC-803; experiment: Downregulation of c-Myc expression in human MGC-803 cells incubated for 48 hrs; format: functional, cell-based; conditions: dose 5-15 nM, DDE = dose-dependent effect
[12] = system: MGC-803; experiment: Inhibition of p38 signalling pathway in human MGC-803 cells assessed as reduction in MKK3/6 phosphorylation at 5 to 15 nM incubated for 48 hrs; format: cell-based; conditions: dose 5-15 nM
[13] = system: Mus musculus; experiment: Downregulation of JNK phosphorylation in tumor tissue of BALB/c nude mouse xenografted with human MGC-803 cells at 15 to 30 mg/kg, ip administered once daily for 21 days by Western blotting analysis; format: functional, organism-based; conditions: dose 15-30 mg/kg, time 21.0 day
[14] = system: MGC-803; experiment: Inhibition of ERK signalling pathway in human MGC-803 cells assessed as downregulation of c-Raf phosphorylation at 5 to 15 nM incubated for 48 hrs; format: cell-based; conditions: dose 5-15 nM
[15] = system: MGC-803; experiment: Induction of apoptosis in human MGC-803 cells assessed as decrease in Mcl-1 level; format: functional, cell-based; conditions: dose 5-15 nM, DDE = dose-dependent effect
[16] = system: HGC-27; experiment: Downregulation of cdc2 phosphorylation at Thr14 residue in human HGC-27 cells at 10 to 30 nM incubated for 48 hrs; format: functional, cell-based; conditions: dose 10-30 nM
[17] = system: MGC-803; experiment: Upregulation of phosphorylated Histone H3 expression in human MGC-803 cells at 5 to 15 nM incubated for 48 hrs; format: functional, cell-based; conditions: dose 5-15 nM
[18] = system: HGC-27; experiment: Induction of apoptosis in human HGC-27 cells assessed as increase in dead cells at 10 to 30 nM incubated for 48 hrs by calcein-AM dye/propidium iodide staining based analysis; format: functional, cell-based; conditions: dose 10-30 nM
[19] = system: HGC-27; experiment: Antiproliferative activity against human HGC-27 cells assessed as reduction in cell viability at 15 to 30 nM by MTT assay; format: functional, cell-based; conditions: dose 15-30 nM, time 12-48 hrs, TDE = time-dependent effect
[20] = system: HGC-27; experiment: Induction of apoptosis in human HGC-27 cells assessed as decrease in Bcl-2 level; format: functional, cell-based; conditions: dose 10-30 nM, DDE = dose-dependent effect
[21] = Induction of mitochondria mediated intrinsic apoptosis in human MGC-803 cells assessed as early apoptotic cells at 15 nM measured after 48 hrs by flow cytometry analysis (Rvb= 1.6%); format: functional
[22] = molecular target: Tubulin (Homo sapiens) (UniProt P68371+Q9H4B7+P0DPH7+P68366+Q13509+Q71U36+P04350+Q3ZCM7+P07437+P68363+Q9BQE3+Q6PEY2+Q13885+Q9BVA1+Q9BUF5); experiment: Disruption of microtubule network in human HGC-27 cells assessed as irregular form of filamentous microtubule structures at 10 to 30 nM measured after 48 hrs by DAPI staining based fluorescence microscopic analysis; format: cell-based; conditions: dose 10-30 nM
[23] = system: HGC-27; experiment: Induction of apoptosis in human HGC-27 cells assessed as increase in Noxa level; format: functional, cell-based; conditions: dose 10-30 nM, DDE = dose-dependent effect
[24] = system: KYSE-450; experiment: Antiproliferative activity against human KYSE-450 cells assessed as reduction in cell viability incubated for 48 hrs by MTT assay; format: functional, cell-based; conditions: KYSE-450, 48 h
[25] = system: SH-SY5Y; experiment: Antiproliferative activity against human SH-SY5Y cells assessed as reduction in cell viability incubated for 48 hrs by MTT assay; format: functional, cell-based
[26] = system: HGC-27; experiment: Inhibition of ERK signalling pathway in human HGC-27 cells assessed as reduction in downstream substrate p90RSK phosphorylation at 10 to 30 nM incubated for 48 hrs; format: cell-based; conditions: dose 10-30 nM
[27] = system: HGC-27; experiment: Antiproliferative activity against human HGC-27 cells assessed as reduction in cell viability incubated for 48 hrs by MTT assay; format: functional, cell-based; conditions: HGC-27, 48 h
[28] = system: HGC-27; experiment: Induction of apoptosis in human HGC-27 cells assessed as nuclear fragmentation at 10 to 30 nM incubated for 48 hrs by DAPI staining based analysis; format: functional, cell-based; conditions: dose 10-30 nM
[29] = system: HGC-27; experiment: Inhibition of ERK signalling pathway in human HGC-27 cells assessed as reduction in downstream substrate MSK1 phosphorylation at 10 to 30 nM incubated for 48 hrs; format: cell-based; conditions: dose 10-30 nM
[30] = system: MGC-803; experiment: Downregulation of FoxO3a expression in human MGC-803 cells incubated for 48 hrs; format: functional, cell-based; conditions: dose 5-15 nM, DDE = dose-dependent effect
[31] = system: CWR22R; experiment: Antiproliferative activity against human 22Rv1 cells assessed as reduction in cell viability incubated for 48 hrs by MTT assay; format: functional, cell-based; conditions: 22Rv1, 48 h
[32] = system: MGC-803; experiment: Induction of apoptosis in human MGC-803 cells assessed as decrease in Bcl-2 level; format: functional, cell-based; conditions: dose 5-15 nM, DDE = dose-dependent effect
[33] = system: HGC-27; experiment: Downregulation of c-Myc expression in human HGC-27 cells incubated for 48 hrs; format: functional, cell-based; conditions: dose 10-30 nM, DDE = dose-dependent effect
[34] = system: HGC-27; experiment: Inhibition of p38 signalling pathway in human HGC-27 cells assessed as reduction in p38 phosphorylation at 10 to 30 nM incubated for 48 hrs; format: cell-based; conditions: dose 10-30 nM
[35] = system: HGC-27; experiment: Downregulation of vimentin expression in human HGC-27 cells incubated for 48 hrs; format: functional, cell-based; conditions: dose 10-30 nM, DDE = dose-dependent effect
[36] = Toxicity in BALB/c nude mouse xenografted with human MGC-803 cells assessed as pathological changes in liver at 15 to 30 mg/kg, ip administered once daily for 21 days by Hematoxyin-eosin staining based analysis; format: organism-based; conditions: in vivo, 504 h, dose 15-30 mg/kg, time 21 day
[37] = Induction of mitochondria mediated intrinsic apoptosis in human HGC-27 cells assessed as late apoptotic cells at 10 nM measured after 48 hrs by flow cytometry analysis (Rvb= 93.6%); format: functional

Sequence of Tubulin (Sus scrofa) (P02550 whole entry, looked up): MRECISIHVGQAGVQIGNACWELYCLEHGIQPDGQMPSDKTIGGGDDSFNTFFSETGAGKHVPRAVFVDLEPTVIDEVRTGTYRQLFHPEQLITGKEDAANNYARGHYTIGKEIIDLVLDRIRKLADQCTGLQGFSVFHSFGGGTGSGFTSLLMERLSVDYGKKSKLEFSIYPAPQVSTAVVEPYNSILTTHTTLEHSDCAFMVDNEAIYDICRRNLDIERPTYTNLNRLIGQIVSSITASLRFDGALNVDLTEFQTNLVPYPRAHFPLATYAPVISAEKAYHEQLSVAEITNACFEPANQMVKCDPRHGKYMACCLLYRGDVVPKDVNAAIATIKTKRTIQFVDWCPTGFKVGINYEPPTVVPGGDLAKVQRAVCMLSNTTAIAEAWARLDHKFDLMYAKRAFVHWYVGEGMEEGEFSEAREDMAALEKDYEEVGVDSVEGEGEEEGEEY
Sequence of Tubulin (Sus scrofa) (P02554 whole entry, looked up): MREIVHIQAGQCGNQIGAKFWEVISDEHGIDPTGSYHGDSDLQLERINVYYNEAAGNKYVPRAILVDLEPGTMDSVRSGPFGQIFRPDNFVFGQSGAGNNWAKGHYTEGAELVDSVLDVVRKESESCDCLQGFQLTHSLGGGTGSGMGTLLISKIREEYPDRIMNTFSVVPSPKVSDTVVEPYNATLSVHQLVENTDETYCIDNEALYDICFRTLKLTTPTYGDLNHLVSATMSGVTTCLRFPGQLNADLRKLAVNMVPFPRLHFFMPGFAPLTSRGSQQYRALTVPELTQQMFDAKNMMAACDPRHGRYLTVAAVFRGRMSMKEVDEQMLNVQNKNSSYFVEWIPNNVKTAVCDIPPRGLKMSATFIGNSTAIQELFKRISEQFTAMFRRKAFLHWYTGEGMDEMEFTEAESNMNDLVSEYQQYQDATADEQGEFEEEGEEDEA

With `CN(c1ccc2c(ccn2C)c1)c1cc(=O)oc2ccccc12` as the compound, how does the inhibition [1] read?
Its inhibition is “Active”.

What about the Activity [2] of the same compound?
Its Activity is 75.2%.

And the Activity [3]?
The Activity was 21.6%.

And the inhibition [4]?
The inhibition was “Active”.

What about the Activity [5] of the same compound?
Its Activity is “Dde”.

What about the Activity [6] of the same compound?
The Activity was “Non-Toxic”.

And the IC50 [7]?
Its IC50 is 79.3 nM.

And the inhibition [8]?
The inhibition was “Active”.

And the Activity [9]?
The Activity was “Dde”.

What about the IC50 [10] of the same compound?
Its IC50 is 21.8 nM.

What about the Activity [11] of the same compound?
The Activity was “Dde”.

And the inhibition [12]?
Its inhibition is “Active”.

What about the Activity [13] of the same compound?
The Activity was “Active”.

And the inhibition [14]?
Its inhibition is “Active”.

What about the Activity [15] of the same compound?
The Activity was “Dde”.

And the Activity [16]?
Its Activity is “Active”.

What about the Activity [17] of the same compound?
The Activity was “Active”.

What about the Activity [18] of the same compound?
The Activity was “Active”.

What about the Activity [19] of the same compound?
Its Activity is “Tde”.

And the Activity [20]?
The Activity was “Dde”.

What about the Activity [21] of the same compound?
The Activity was 23.6%.

And the Activity [22]?
The Activity was “Active”.

And the Activity [23]?
The Activity was “Dde”.

And the IC50 [24]?
Its IC50 is 21 nM.

And the IC50 [25]?
The IC50 was 19.4 nM.

What about the inhibition [26] of the same compound?
Its inhibition is “Active”.

And the IC50 [27]?
The IC50 was 23.8 nM.

And the Activity [28]?
Its Activity is “Active”.

And the inhibition [29]?
The inhibition was “Active”.

And the Activity [30]?
The Activity was “Dde”.

What about the IC50 [31] of the same compound?
The IC50 was 558 nM.

What about the Activity [32] of the same compound?
The Activity was “Dde”.

And the Activity [33]?
The Activity was “Dde”.

What about the inhibition [34] of the same compound?
Its inhibition is “Active”.

And the Activity [35]?
Its Activity is “Dde”.

And the Activity [36]?
The Activity was “Non-Toxic”.

And the Activity [37]?
The Activity was 91.6%.
